SMILES strings stand for the structures.

These results are taken from patent US20050288351A1, “Azaspiro compounds for the treatment of pain” (Schwarz Pharma AG, priority 2002, published 2005).

The test system of series [1] is NMRl mice. As to the kind of experiment: formalin test, in-vivo test for determining the analgesic efficacy. Set-up: key to Mean deviation of the pain reaction compared to control (%) (n minutes after administration of formalin) 20-25′ / Mean deviation of the pain reaction compared to control (%) (n minutes after administration of formalin) 30-35′: (+): Intensified pain reaction. To be noted: for Mean deviation of the pain reaction compared to control (%) (n minutes after administration of formalin) 20-25′: 20-25′ after formalin; for Mean deviation of the pain reaction compared to control (%) (n minutes after administration of formalin) 30-35′: 30-35′ after formalin; for Mean deviation of the pain reaction compared to control (%) (n minutes after administration of formalin) 40-45′: 40-45′ after formalin; for average reduction of the pain reaction: after 30-45 minutes in the formalin test. The protocol:
In each case, the maximum dosage selected for the concentration of azaspiro compounds was held, by a factor of about 2, below the toxic dose previously determined in the IRWIN test (Irwin, Psychopharmacologia 13 (1968) 222).
A reduction in the pain reaction is expressed in negative percentage figures.
The test was conducted as described by Wheeler-Aceto (Psychopharmacology 104, 1991, 35).
NMRl mice having a weight of 20-25 g were kept under controlled conditions (22±2° C., 40-70% relative humidity). 25 μl of a 5% […] solution was injected in the hind leg and the leg-licking frequency was then clocked for 5 minutes each at defined intervals (20, 30, 40 minutes).
(§1) First, the highest possible non-toxic concentration of the respective test substances that could be used was determined by an IRWIN test (Irwin, Psychopharmacologia 13, 1968, 222).
The test substances were dissolved in a physiological salt solution with 0.5% sodium carboxymethyl cellulose and were each measured in 1-3 dosages that had been applied intraperitoneally 10 minutes before administration of formalin. The comparative reference value was provided by a control excipient (10 ml/kg).
The test was performed in blind fashion on 10 mice per test series. The evaluation was based on a comparison of the treated animals with control excipients at three different times. […] Accordingly, an average 50% reduction of the pain reaction for the treated animals is obtained when in a defined period (e.g. 30-35′ after the formalin injection) the leg-licking duration (averaged over the 10 test animals) is reduced by 50% compared to the untreated animals. The statistical significance was determined using the Mann-Whitney U-test.

Series [2] can be described thus: side effects above the maximum tolerable dosages (IRWIN test). The series is classed as in vivo. As for the experimental part:
FIG. 1 and Table 1 show the reaction of test animals (10 mice each) 20-45 minutes after the intraperitoneal administration of selected compounds. In each case, the maximum dosage selected for the concentration of azaspiro compounds was held, by a factor of about 2, below the toxic dose previously determined in the IRWIN test (Irwin, Psychopharmacologia 13 (1968) 222).
as §1

Setting [3] is: 8 mg/kg i.p., Test series 1, n = 10 mice.
Setting [4] is: 8 mg/kg i.p., Test series 2, n = 10 mice.
The mark [5] stands for this setting: 16 mg/kg i.p., Test series 1, n = 10 mice.
Where [6] appears, read: 16 mg/kg i.p., Test series 2, n = 10 mice.
[7] abbreviates: 32 mg/kg i.p., Test series 1, n = 10 mice.
Setting [8] is: 32 mg/kg i.p., Test series 2, n = 10 mice.
Setting [9] is: 4 mg/kg i.p., Test series 2, n = 10 mice.
Where [10] appears, read: 64 mg/kg i.p., Test series 1, n = 10 mice.
Setting [11] is: 64 mg/kg i.p., Test series 2, n = 10 mice.

Consider `O=C1CC2(CCCCC2)CN1` [GBP-L, 2-azaspiro[4.5]decan-3-on, reference compound], for which the “Mean deviation of the pain reaction compared to control (%) (n minutes after administration of formalin) 20-25′” value is recorded as −58% in series [1] (setting [3]); “(+)” in series [1] (setting [4]); −74% in series [1] (setting [5]); “(+)” in series [1] (setting [6]); −64% in series [1] (setting [7]); “(+)” in series [1] (setting [8]). The “Mean deviation of the pain reaction compared to control (%) (n minutes after administration of formalin) 30-35′” value in series [1] (setting [3]) is recorded as −18%; in series [1] (setting [4]), “(+)”; in series [1] (setting [5]), −40%; in series [1] (setting [6]), “(+)”; in series [1] (setting [7]) it was −15%; in series [1] (setting [8]), −10%. Also, the results for the “Mean deviation of the pain reaction compared to control (%) (n minutes after administration of formalin) 40-45′” value in series [1] (setting [3]), in series [1] (setting [5]) and in series [1] (setting [7]) were −15%, −41% and −46%, respectively. For the same compound, in series [2], the lethality entry is given as “significant lethality rate”.
As to `S=C1CC2(CCCCC2)CN1` [SPM 0013, 2-azaspiro[4.5]decane-3-thion], in series [1] (32 mg/kg i.p., n = 10 mice), the “Mean deviation of the pain reaction compared to control (%) (n minutes after administration of formalin) 20-25′” value is −99%, the “Mean deviation of the pain reaction compared to control (%) (n minutes after administration of formalin) 30-35′” value is on record as −32% and the “Mean deviation of the pain reaction compared to control (%) (n minutes after administration of formalin) 40-45′” value is −4%.
For the compound `ON=C1CC2(CCCCC2)CN1` [SPM 6850, N-(2-azaspiro[4.5]decane-3)-oxim], in series [1] (32 mg/kg i.p., n = 10 mice), the “Mean deviation of the pain reaction compared to control (%) (n minutes after administration of formalin) 20-25′” value is “(+)”, the “Mean deviation of the pain reaction compared to control (%) (n minutes after administration of formalin) 30-35′” value is −50% and the “Mean deviation of the pain reaction compared to control (%) (n minutes after administration of formalin) 40-45′” value was −38%. Further, in series [1] (32 mg/kg per Table 1), the “average reduction of the pain reaction” value is 44%.
Consider `C1CCC2(CC1)CCNC2` [SPM 0019, 2-azaspiro[4.5]decane], for which, in series [1] (32 mg/kg i.p., n = 10 mice), the “Mean deviation of the pain reaction compared to control (%) (n minutes after administration of formalin) 20-25′” value was −67%, the “Mean deviation of the pain reaction compared to control (%) (n minutes after administration of formalin) 30-35′” value is −21% and the “Mean deviation of the pain reaction compared to control (%) (n minutes after administration of formalin) 40-45′” value is reported as −26%.
The melting point is the temperature of the solid-liquid transition. `S=C1CC2(CCCCCC2)CN1` [SPM 6868, 2-azaspiro[4.6]undecane-3-thion] gave a melting point of 132.3 °C. Besides, in series [1] (setting [9]), the “Mean deviation of the pain reaction compared to control (%) (n minutes after administration of formalin) 20-25′” value is reported as −53%, the “Mean deviation of the pain reaction compared to control (%) (n minutes after administration of formalin) 30-35′” value is listed as −7% and the “Mean deviation of the pain reaction compared to control (%) (n minutes after administration of formalin) 40-45′” value was −16%. Moreover, in series [1] (setting [5]), the “Mean deviation of the pain reaction compared to control (%) (n minutes after administration of formalin) 20-25′” value is on record as −62%, the “Mean deviation of the pain reaction compared to control (%) (n minutes after administration of formalin) 30-35′” value was −29% and the “Mean deviation of the pain reaction compared to control (%) (n minutes after administration of formalin) 40-45′” value was −49%. Also, in series [1] (setting [6]), the “Mean deviation of the pain reaction compared to control (%) (n minutes after administration of formalin) 20-25′” value is −42%, the “Mean deviation of the pain reaction compared to control (%) (n minutes after administration of formalin) 30-35′” value is −30% and the “Mean deviation of the pain reaction compared to control (%) (n minutes after administration of formalin) 40-45′” value is −31%. Further, in series [1] (setting [7]), the “Mean deviation of the pain reaction compared to control (%) (n minutes after administration of formalin) 20-25′” value is −83%, the “Mean deviation of the pain reaction compared to control (%) (n minutes after administration of formalin) 30-35′” value is given as −0% and the “Mean deviation of the pain reaction compared to control (%) (n minutes after administration of formalin) 40-45′” value is listed as −24%. For the same compound, in series [1] (setting [10]), the “Mean deviation of the pain reaction compared to control (%) (n minutes after administration of formalin) 20-25′” value was −89%, the “Mean deviation of the pain reaction compared to control (%) (n minutes after administration of formalin) 30-35′” value is reported as −67% and the “Mean deviation of the pain reaction compared to control (%) (n minutes after administration of formalin) 40-45′” value is listed as −83%. For the same compound, in series [1] (setting [11]), the “Mean deviation of the pain reaction compared to control (%) (n minutes after administration of formalin) 20-25′” value is given as −100%, the “Mean deviation of the pain reaction compared to control (%) (n minutes after administration of formalin) 30-35′” value is reported as −98% and the “Mean deviation of the pain reaction compared to control (%) (n minutes after administration of formalin) 40-45′” value is reported as −93%.
On to `ON=C1CC2(CCCCCC2)CN1` [SPM 6873, N-(2-azaspiro[4.6]undecane-3)-oxim], for which, in series [1] (16 mg/kg i.p., n = 10 mice), the “Mean deviation of the pain reaction compared to control (%) (n minutes after administration of formalin) 20-25′” value was “(+)”, the “Mean deviation of the pain reaction compared to control (%) (n minutes after administration of formalin) 30-35′” value is −35% and the “Mean deviation of the pain reaction compared to control (%) (n minutes after administration of formalin) 40-45′” value is on record as −38%. In addition, the “average reduction of the pain reaction” value in series [1] (16 mg/kg per Table 1) is 36.5%.
